Experimental findings from patent publication US11306078B2, “Piperidine CXCR7 receptor modulators” (IDORSIA PHARMACEUTICALS LTD., priority 2016, dated 2022) are described below.

The IC50 is the concentration at which inhibition is half-maximal.

Sequence of human chemokine receptor CXCR7 (P25106 whole entry): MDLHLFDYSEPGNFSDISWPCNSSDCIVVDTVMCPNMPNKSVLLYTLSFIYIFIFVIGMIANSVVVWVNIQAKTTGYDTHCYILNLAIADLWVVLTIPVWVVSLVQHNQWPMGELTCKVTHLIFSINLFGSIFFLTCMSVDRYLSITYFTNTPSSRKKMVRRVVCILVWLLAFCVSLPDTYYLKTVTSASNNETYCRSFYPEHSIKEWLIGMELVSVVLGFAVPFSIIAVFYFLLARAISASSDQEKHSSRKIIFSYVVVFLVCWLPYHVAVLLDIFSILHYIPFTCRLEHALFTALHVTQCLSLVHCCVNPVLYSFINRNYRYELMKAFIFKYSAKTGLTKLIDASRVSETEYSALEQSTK

The assay concerns the target human chemokine receptor CXCR7 (Homo sapiens (Human), UniProt P25106). The assay is described as follows: Tango CXCR7-bla U2OS beta-arrestin recruitment assay (beta-lactamase reporter, FRET), antagonism of CXCL12/SDF1-α.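 Further: compounds preincubated 15 min before CXCL12 addition, then 22 h at 37 °C, FRET emission ratio read with CCF4-AM substrate after 2 h.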 Format: cell-based. The conditions noted are these: antagonistic effect on CXCR7; Tango CXCR7-bla U2OS cells, CXCL12/SDF1-α at its EC80. In general terms: Arrestin recruitment assays detect the binding of arrestin to an activated receptor.
On to `CN(C)C(=O)[C@@H]1CN(CC(C)(C)C)CC[C@H]1NC(=O)c1cc(-c2ccc(F)cc2F)on1` [Example 2.02], for which the IC50 turned out to be 248 nM.
In the case of `O=C(N[C@H]1CCN(Cc2ccccc2)C[C@@H]1C(=O)NC1(c2ncccn2)CC1)c1cc(-c2ccc(F)cc2F)on1` [Example 2.071], the IC50 was 8 nM.
Consider `CC1(NC(=O)[C@H]2CN(C3CCCCC3)CC[C@@H]2NC(=O)c2cc(-c3ccc(F)cc3F)on2)CCC1` [Example 4.006], for which the IC50 was found to be 149 nM.
Molecule `O=C(N[C@@H]1CCN(CC2CC2)C[C@H]1C(=O)NC1(c2ccc(F)cn2)CC1)c1cc(-c2ccc(F)cc2F)no1` (racemic) [Example 1.163, rac-(3R*,4R*)-1-Cyclopropylmethyl-4-{[3-(2,4-difluoro-phenyl)-isoxazole-5-carbonyl]-amino}-piperidine-3-carboxylic acid [1-(5-fluoro-pyridin-2-yl)-cyclopropyl]-amide] came in with an IC50 of 953 nM.
The result for `C[C@@H](NC(=O)[C@@H]1CN(C2CCCCC2)CC[C@H]1NC(=O)c1cc(-c2c(F)cc(F)cc2F)on1)c1cnccn1` (single isomer, unassigned) [Example 1.129b, (3R*,4R*)-1-Cyclohexyl-4-{[5-(2,4,6-trifluoro-phenyl)-isoxazole-3-carbonyl]-amino}-piperidine-3-carboxylic acid ((R)-1-pyrazin-2-yl-ethyl)-amide] reads 35 nM.
In the case of `C[C@@H](NC(=O)[C@@H]1CN(C2CCCCC2)CC[C@H]1NC(=O)c1cc(-c2c(F)cc(F)cc2F)on1)c1ccccn1` (single isomer, unassigned) [Example 1.121a, (3R*,4R*)-1-Cyclohexyl-4-{[5-(2,4,6-trifluoro-phenyl)-isoxazole-3-carbonyl]-amino}-piperidine-3-carboxylic acid ((R)-1-pyridin-2-yl-ethyl)-amide] it was 742 nM; in that of `C[C@@H]1CCC[C@H]1N1CC[C@@H](NC(=O)c2cc(-c3c(F)cc(F)cc3F)on2)[C@H](C(=O)NC2(c3ccccn3)CC2)C1` (relative stereo) [Example 1.172, (3R*,4R*)-1-((1RS,2RS)-2-Methyl-cyclopentyl)-4-{[5-(2,4,6-trifluoro-phenyl)-isoxazole-3-carbonyl]-amino}-piperidine-3-carboxylic acid (1-pyridin-2-yl-cyclopropyl)-amide], 72 nM.
Take `O=C(N[C@@H]1CCN(CC2CC2)C[C@H]1C(=O)NC1(c2ncccn2)CC1)c1noc(-c2ccc(F)cc2F)c1F` (racemic) [Example 3.022, rac-(3R*,4R*)-1-Cyclopropylmethyl-4-{[5-(2,4-difluoro-phenyl)-4-fluoro-isoxazole-3-carbonyl]-amino}-piperidine-3-carboxylic acid (1-pyrimidin-2-yl-cyclopropyl)-amide]: the IC50 came to 28 nM.
In the case of `CC(C)(C)CN1CC[C@H](NC(=O)c2cc(-c3ccc(F)cc3F)on2)[C@@H](C(=O)NC2(c3ncccn3)CC2)C1` [Example 2.069] it was 6 nM; in that of `O=C(N[C@@H]1CCN(C2CCC2)C[C@H]1C(=O)NCC1(c2ccccn2)CC1)c1cc(-c2ccc(F)cc2F)on1` [Example 4.093], 165 nM.
`CN(C)C(=O)[C@@H]1CN(C2CCCCC2)CC[C@H]1NC(=O)c1cn(-c2ccc(F)cc2F)nn1` (racemic) [Example 1.095, rac-(3R*,4R*)-1-Cyclohexyl-4-{[1-(2,4-difluoro-phenyl)-1H-[1,2,3]triazole-4-carbonyl]-amino}-piperidine-3-carboxylic acid dimethylamide]: the IC50 worked out at 254 nM.
In the case of `CC(C)(NC(=O)[C@H]1CN(CC2CC2)CC[C@@H]1NC(=O)c1cc(-c2ccc(F)cc2F)on1)c1ncccn1` [Example 4.102] it was 1 nM; in that of “(3R*,4R*)-1-Cyclopentyl-4-{[3-(2,4-difluoro-phenyl)-isoxazole-5-carbonyl]-amino}-piperidine-3-carboxylic acid ((1S*,2R*)-2-phenyl-cyclopropyl)-amide and (3R*,4R*)-1-Cyclopentyl-4-{[3-(2,4-difluoro-phenyl)-isoxazole-5-carbonyl]-amino}-piperidine-3-carboxylic acid ((1R*,2S*)-2-phenyl-cyclopropyl)-amide [Example 1.148]”, 769 nM; in that of `CCN(C)C(=O)[C@@H]1CN(C2CCCC2)CC[C@H]1NC(=O)c1cc(-c2ccc(F)cc2F)on1` [Example 2.076], 71 nM.
In the case of `C[C@@H](NC(=O)[C@H]1CN(C2CCC2)CC[C@@H]1NC(=O)c1cc(-c2ccc(F)cc2F)on1)c1ncccc1F` [Example 4.098a] it was 12 nM; in that of `O=C(N[C@@H]1CCN(C2CCC2)C[C@H]1C(=O)NCC1(c2ccc(Cl)cc2)CC1)c1cc(-c2ccc(F)cc2F)on1` [Example 4.092], 126 nM.
In the case of `CN(C)C(=O)[C@@H]1CN(CC2CC2)CC[C@H]1NC(=O)c1cn(-c2ccc(F)cc2F)nn1` (racemic) [Example 1.097, rac-(3R*,4R*)-1-Cyclopropylmethyl-4-{[1-(2,4-difluoro-phenyl)-1H-[1,2,3]triazole-4-carbonyl]-amino}-piperidine-3-carboxylic acid dimethylamide] it was 442 nM; in that of `CN(C)C(=O)[C@@H]1CN(C2CCCC2)CC[C@H]1NC(=O)c1cc(-c2ccc(F)cc2F)no1` (racemic) [Example 1.103, rac-(3R*,4R*)-1-Cyclopentyl-4-{[3-(2,4-difluoro-phenyl)-isoxazole-5-carbonyl]-amino}-piperidine-3-carboxylic acid dimethylamide], 274 nM; in that of `O=C(N[C@@H]1CCN(CC2CC2)C[C@H]1C(=O)NC1(c2ccc(F)cn2)CC1)c1cc(-c2c(F)cc(F)cc2F)on1` (racemic) [Example 1.144, rac-(3R*,4R*)-1-Cyclopropylmethyl-4-{[5-(2,4,6-trifluoro-phenyl)-isoxazole-3-carbonyl]-amino}-piperidine-3-carboxylic acid [1-(5-fluoro-pyridin-2-yl)-cyclopropyl]-amide], 178 nM.
For the molecule `CC(C1CC1)N1CC[C@@H](NC(=O)c2cc(-c3ccc(F)cc3F)on2)[C@H](C(=O)N(C)C)C1` (some centres unmarked) [Example 2.046], the midpoint of inhibition, the IC50, lay at 16 nM.
Regarding `C[C@@H]1CCC[C@H]1N1CC[C@@H](NC(=O)c2cc(-c3ccc(F)cc3F)on2)[C@H](C(=O)N(C)C)C1` [Example 2.023a], 9 nM corresponded to half-maximal inhibition (IC50).
For `O=C(N[C@H]1CCN(C2CCC2)C[C@@H]1C(=O)NC1(c2ncccn2)CC1)c1nnc(-c2ccc(F)cc2F)s1` [Example 2.105], half-maximal inhibition (IC50) was put at 60 nM.
In the case of `O=C(N[C@@H]1CCN(C2CCCCC2)C[C@H]1C(=O)NC1(c2ccccn2)CC1)c1cn(-c2ccc(F)cc2F)nn1` (single isomer, unassigned) [Example 1.165a, (3R*,4R*)-1-Cyclohexyl-4-{[1-(2,4-difluoro-phenyl)-1H-[1,2,3]triazole-4-carbonyl]-amino}-piperidine-3-carboxylic acid (1-pyridin-2-yl-cyclopropyl)-amide] it was 43 nM; in that of `C[C@@H]1CCC[C@H]1N1CC[C@@H](NC(=O)c2cn(-c3ccc(F)cc3F)nn2)[C@H](C(=O)NC2(c3ccccn3)CC2)C1` (relative stereo) [Example 1.168, (3R*,4R*)-4-{[1-(2,4-Difluoro-phenyl)-1H-[1,2,3]triazole-4-carbonyl]-amino}-1-((1RS,2RS)-2-Methyl-cyclopentyl)-piperidine-3-carboxylic acid (1-pyridin-2-yl-cyclopropyl)-amide], 728 nM; in that of `COCC(C)(C)NC(=O)[C@@H]1CN([C@@H]2CCC[C@H]2C)CC[C@H]1NC(=O)c1cc(-c2c(F)cc(F)cc2F)on1` (relative stereo) [Example 1.114, (3R*,4R*)-1-((1RS,2RS)-2-Methyl-cyclopentyl)-4-{[5-(2,4,6-trifluoro-phenyl)-isoxazole-3-carbonyl]-amino}-piperidine-3-carboxylic acid (2-methoxy-1,1-dimethyl-ethyl)-amide], 626 nM.
In the case of `Cc1cccc([C@H](C)NC(=O)[C@@H]2CN(C3CCCCC3)CC[C@H]2NC(=O)c2cc(-c3ccc(F)cc3F)on2)n1` (single isomer, unassigned) [Example 1.188.d, (3R*,4R*)-1-Cyclohexyl-4-{[5-(2,4-difluoro-phenyl)-isoxazole-3-carbonyl]-amino}-piperidine-3-carboxylic acid [(S)-1-(6-methyl-pyridin-2-yl)-ethyl]-amide] it was 362 nM.
The result for `O=C(N[C@@H]1CCN(C2CCCCC2)C[C@H]1C(=O)N1CCOCC1)c1cc(-c2ccc(F)cc2F)on1` (racemic) [Example 1.016, rac-5-(2,4-Difluoro-phenyl)-isoxazole-3-carboxylic acid [(3R*,4R*)-1-cyclohexyl-3-(morpholine-4-carbonyl)-piperidin-4-yl]-amide] reads 275 nM; that for `CC(C)(C#N)NC(=O)[C@@H]1CN(C2CCCCC2)CC[C@H]1NC(=O)c1cc(-c2ccc(F)cc2F)on1` [Example 4.019], 151 nM.
In turn, `CN(C)C(=O)[C@@H]1CN(C2CCCCC2)CC[C@H]1NC(=O)c1cc(-c2ccc(F)cc2)on1` (racemic) [Example 3.002, rac-(3R*,4R*)-1-Cyclohexyl-4-{[5-(4-fluoro-phenyl)-isoxazole-3-carbonyl]-amino}-piperidine-3-carboxylic acid dimethylamide] showed an IC50 of 435 nM.
In the case of `O=C(N[C@H]1CCNC[C@@H]1C(=O)NC1(c2ncccn2)CC1)c1nnc(-c2ccc(F)cc2F)s1` [Example 2.104] it was 195 nM; in that of `CC(C)N1CC[C@H](NC(=O)c2ncc(-c3ccc(F)cc3F)o2)[C@@H](C(=O)NC2(c3ncccn3)CC2)C1` [Example 2.099], 343 nM.
In the case of `CN(C)CCNC(=O)[C@@H]1CN(C2CCCCC2)CC[C@H]1NC(=O)c1cc(-c2ccc(F)cc2F)on1` (racemic) [Example 1.023, rac-(3R*,4R*)-1-Cyclohexyl-4-{[5-(2,4-difluoro-phenyl)-isoxazole-3-carbonyl]-amino}-piperidine-3-carboxylic acid (2-dimethylamino-ethyl)-amide] it was 743 nM.
